According to patent publication US12241097B2, “Compositions and methods for adoptive cell therapy for cancer” (MEMORIAL SLOAN KETTERING CANCER CENTER, priority 2017, dated 2025):

Tests used:
Jurkat (T cell) = assay: in vitro cytotoxicity, Jurkat; type: cell-based, human; conditions: T cell lines (Jurkat)
primary T-cells = assay: in vitro cytotoxicity, primary T cells; type: cell-based, human
PC9 cells = assay: PC9 viability, CellTitre-Glo, 48 hours; type: cell-based, human
Method: FIG. 14 provides exemplary data showing that Human T cells, but not cancer cells, are resistant to Erlotinib. (A) Human Jurkat T cells (red circle) and human non-small cell lung carcinoma cell lines PC9 (black square) and HCC827 (blue triangle) were treated with increasing concentrations of the receptor tyrosine kinase inhibitor Erlotinib. […] Cell viability was measured at 48 hours by CellTitre-Glo® luminescence.
FIG. 14 provides exemplary data showing that Human T cells, but not cancer cells, are resistant to Erlotinib. Human Jurkat T cells, primary T cells and human non-small cell lung carcinoma cell lines PC9 and HCC827 were treated with increasing concentrations of the receptor tyrosine kinase inhibitor Erlotinib. […] PC9 cells were incubated in the presence of Erlotinib, P-Erlotinib, or P-Erlotinib in the presence of purified CPG2. Cell viability was measured at 48 hours by CellTitre-Glo® luminescence.

HCC827 = HCC827 viability with Erlotinib; type: cell-based, human
Method: Human Jurkat T cells, primary T cells and human non-small cell lung carcinoma cell lines PC9 and HCC827 were treated with increasing concentrations of the receptor tyrosine kinase inhibitor Erlotinib. […] Cell viability was measured at 48 hours by CellTitre-Glo® luminescence.

Jurkat T cells [1] = assay: Jurkat viability with prodrug and supernatant from CPG2-secreting HEK293T cells; type: cell-based, human; conditions: for cell viability with CPG2 supernatant: 48 hours, control media did not
Method: (§1) The in vitro cytotoxicity of AMS (structure 1c) and its prodrug variant (structure 1a) was tested against a variety of cell lines using a CellTitre Glo® assay (Promega, Madison, WI). […] Moreover, co-treatment with the prodrug and supernatant from CPG2-transfected HEK293T cells (see Example 3) led to cytotoxicity approaching that of the free drug (50 nM), consistent with CPG2-mediated cleavage of the prodrug to release the active parent drug. […] In contrast, AMS prodrug 1a was not activated by HEK293T cells expressing CPG intracellularly, which likely attributed to poor cell-penetrance of the prodrug due to the free bis-anionic gluatamate moiety.
Jurkat T cells were exposed to increasing concentrations of AMS (circle) or Pro-AMS with media alone (triangle) or supernatant from CPG2-secreting HEK293T cells (square). Cell viability was measured at 48 hours by CellTitre-Glo® luminescence assay.
Jurkat T cells were exposed to increasing concentrations of ZD2767P with media alone (triangle) or supernatant from CPG2-secreting HEK293T cells (square). Cell viability was measured at 48 hours by CellTitre-Glo® luminescence assay.

[2] = system: HEK293T cells expressing CPG2; assay: viability of HEK293T cells expressing CPG2 variants exposed to prodrug; type: cell-based, human
Method: as §1
Expression of CPG2 without a signal peptide (CPG2nosigp) was employed as a control. HEK293t cells stably transfected with CPG2 variants were exposed to P-AMS ([…]) for 48 hours and analyzed by bright field microscopy (FIG. 9A). Cells were exposed to varying concentrations of P-AMS and cell viability was analyzed at 48 hr post treatment (FIG. 9B).
(§2) The HA epitope tag permitted staining of surface-level CPG2 in cells expressing either the secreted or transmembrane forms of the enzyme (FIG. 22D). […] Cell viability was measured at 48 hours by CellTitre-Glo® luminescence.

Jurkat T cells [3] = assay: Jurkat viability with P-AMS and purified recombinant CPG2; type: cell-based, human; conditions: Jurkat viability at 48 hours
Method: FIG. 4 provides exemplary data showing activation of P-AMS (see FIG. 2) by recombinant CPG2 expressed and purified from E. coli. (A) Human Jurkat T cells were incubated with or without P-AMS in the presence of increasing concentration of purified CPG2. Cell viability was measured at 48 hours by CellTitre-Glo luminescence. (B) Recombinant CPG2 was exposed to various concentrations of glutamated AMS prodrug. Following incubation at 37° C. (0.5, 1, 2, and 4 hr.), the reaction was combined with Amplex® Red (converts free glutamate to a fluorescent species) and fluorescent emission was analyzed using a fluorescence multiwell plate scanner.
The CPG2-pET151 vector was transformed into BL21 star E. coli cells and induced with IPTG. Bacteria were homogenized in a French Press and purified by affinity chromatography over Ni++ beads using standard protocols. Imidazole was exchanged via PBS dialysis and protein was purified via desalting spin columns. The expressed and purified CPG2 was assayed to confirm that the active enzyme was a potent converter of glutamated prodrugs. […] Pro-AMS was activated by recombinant CPG2 in vitro. Human Jurkat T cells were incubated with or without P-AMS in the presence of increasing concentration of purified CPG2. Cell viability of the Jurkat cells was measured at 48 hours by CellTitre-Glo® luminescence. […]

SET2 cells [4] = assay: SET2 viability with prodrug and supernatant from CPG2-secreting HEK293t cells; type: cell-based; conditions: comparable to AMS at around 100 nM
Method: SET2 cells were exposed to increasing concentrations of AMS (square) or glut-AMS with media alone (− control, triangle) or supernatant from CPG2-secreting HEK293t cells (circle). Cell viability was measured by CellTitre-Glo® luminescence assay.
as §2

[5] = system: lung adenocarcinoma cells (HCC827); assay: coculture of 293t^CPGTM cells with HCC827 plus erlotinib prodrug; type: cell-based; conditions: 120 hr, flow cytometry
Method: FIG. 15 provides exemplary data showing the pro-drug activity of 293T cells expressing transmembrane CPG2. GFP+293t^CPGTM cells were co-cultured with lung adenocarcinoma cells (HCC827) at various ratios (293t^CPGTM:HCC827) and the erlotinib prodrug (p-erlotinib) was added. (A) Cells were analyzed at 120 hour by flow cytometry and % GFP was calculated. (B) Ratio of 293t^CPGTM cells to HCC827 cells was calculated for each cell ratio.
The retroviral constructs encoding the anti-CD19 CAR and transmembrane CPG2 enzyme described above were transduced into 293T cells to test the conversion activity of transmembrane CPG2 for an Erlotinib prodrug. GFP+293t^CPGTM cells were co-cultured with lung adenocarcinoma cells (HCC827) at various ratios (293t^CPGTM:HCC827) and the erlotinib prodrug (p-erlotinib) was added. Cells were analyzed at 120 hr. by flow cytometry (FIG. 15A) and the percentage of GFP cells and the ratio of 293t^CPGTM cells to HCC827 cells was calculated for each cell ratio (FIG. 15B).

HEK293T = assay: in vitro cytotoxicity, HEK293T; type: cell-based, human; conditions: HEK293-t; unit inferred; read-out: IC50 (cell selectivity data), ceph-AMS
Skov-3 = assay: cell viability, Skov-3; type: cell-based, human
[6] = system: myeloid leukemia cell line SET2; assay: cytotoxicity, SET2 (CellTitre Glo); type: cell-based; conditions: unit inferred, read-out: IC50 (cell selectivity data), ceph-AMS
SET2 cells [7] = assay: SET2 viability with ceph-AMS and Beta-lactamase supernatant; type: cell-based; conditions: comparable to AMS at around 100 nM

Compound: C#Cc1cccc(Nc2ncnc3cc(OCCOC)c(OCCOC)cc23)c1 [Erlotinib, reference compound]
- response to increasing concentrations (Jurkat (T cell)): resistance
- response to increasing concentrations (primary T-cells; primary T cells): resistance
- cell death with increasing concentrations (PC9 cells; PC9): significant cell death
- cell death with increasing concentrations (HCC827): significant cell death

Compound: NS(=O)(=O)OC[C@H]1O[C@@H](n2cnc3c(NC(=O)N[C@@H](CCC(=O)O)C(=O)O)ncnc32)[C@H](O)[C@@H]1O [P-AMS, ((9-((2R,3R,4S,5R)-3,4-dihydroxy-5-((sulfamoyloxy)methyl)tetrahydrofuran-2-yl)-9H-purin-6-yl)carbamoyl)-L-glutamic Acid]
- cell viability with CPG2 supernatant (Jurkat T cells [1]): significant decrease in cell viability
- IC50 (Jurkat T cells [1]; Homo sapiens, with CPG2 supernatant, read-out: IC50, co-treatment with supernatant from CPG2-transfected HEK293T cells): 0.05 µM
- cell death of HEK293T cells expressing CPG2 ([2]; cell-secreted and transmembrane CPG2, 48 hours, control construct did not): significant cell death
- activation by HEK293T cells expressing CPG intracellularly ([2]; intracellular CPG): not activated
- activation by recombinant CPG2 (Jurkat T cells [3]): activated
- cell viability with CPG2 supernatant (SET2 cells [4]): significant decrease in cell viability

Compound: C#Cc1cccc(N(Cc2ccc(NC(=O)N[C@@H](CCC(=O)O)C(=O)O)cc2)c2ncnc3cc(OCCOC)c(OCCOC)cc23)c1 [P-Erlotinib]
- toxicity of prodrug alone (PC9 cells; PC9, 1 μM, 48 hours): no toxicity
- activity of prodrug cleaved by purified CPG2 (PC9 cells; PC9, with purified CPG2): comparable activity to the active drug
- killing after conversion by transmembrane CPG2 [5]: kills the target cancer cell

Compound: O=C(O)CC[C@H](NC(=O)Oc1ccc(N(CCI)CCI)cc1)C(=O)O [ZD2767P, reference compound]
- cell viability with CPG2 supernatant (Jurkat T cells [1]): significant decrease in cell viability

Compound: Nc1ncnc2c1ncn2[C@@H]1O[C@H](COS(=O)(=O)NCC2=C(C(=O)O)N3C(=O)[C@@H](NC(=O)Cc4cccs4)[C@H]3SC2)[C@@H](O)[C@H]1O [ceph-AMS]
- IC50 (HEK293T): 2 µM
- IC50 (primary T-cells; Human T cell, unit inferred, read-out: IC50 (cell selectivity data), ceph-AMS): > 1.25 µM
- Selective Index (Skov-3): 3.6
- IC50 (Skov-3; unit inferred, read-out: IC50 (cell selectivity data), ceph-AMS): > 1.25 µM
- IC50 [6]: ~2.2 µM
- cell viability with Beta-lactamase supernatant (SET2 cells [7]): significant decrease in cell viability
